Source: patent publication US7928129B1, “Nanomolar β-lactamase inhibitors” (Northwestern University, priority 2002, dated 2011)
pIC50, pKi: −log10 of the molar value. Like-named read-outs stand apart in the source and are kept apart here.

How the values were obtained:
AmpC β-lactamase [1] = target: T1, AmpC β-lactamase (Escherichia coli, UniProt P00811); assay: biochemical; conditions: for fold more potent than the lead compound lacking the m.carboxyphenyl side chain: 15 versus 1, 16 versus 4
T1 construct: made in house
T1 sequence (P00811 20-377): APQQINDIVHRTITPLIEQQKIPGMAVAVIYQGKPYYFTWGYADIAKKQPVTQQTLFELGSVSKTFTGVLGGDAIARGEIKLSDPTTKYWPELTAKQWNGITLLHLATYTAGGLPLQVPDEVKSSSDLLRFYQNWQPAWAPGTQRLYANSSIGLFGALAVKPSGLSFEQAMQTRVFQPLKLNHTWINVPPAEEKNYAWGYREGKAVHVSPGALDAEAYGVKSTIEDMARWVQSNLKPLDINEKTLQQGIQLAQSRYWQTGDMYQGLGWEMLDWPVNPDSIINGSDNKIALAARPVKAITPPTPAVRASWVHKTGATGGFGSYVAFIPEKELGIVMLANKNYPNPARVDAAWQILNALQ
Method: Enzymology. The phenylglycylboronic acids of the preceding examples were dissolved in DMSO at a concentration of 50 mM; more dilute stocks (10 mM to 1 μM) were subsequently prepared as necessary. Kinetic measurements were performed using nitrocefin as substrate in 50 mM Tris buffer, pH 7.0 and monitored in an HP8453 UV/Vis spectrophotometer. The concentration of AmpC was determined spectrophotometrically in stock solutions made from lyophilized powder; this enzyme had been previously expressed and purified. Usher, K. C., Blaszczak, L. C., Weston, G. S., Shoichet, B. K. and Remington, S. J. Biochemistry 1998, 37, 16082-16092. […] To determine K, values, inhibitor and enzyme were incubated together at their final concentration in the cuvettes for five minutes before the reaction was initiated by the addition of 200 μM substrate. […] Waley, S. G. Biochem. J. 1982, 205 631-633. […] In all reactions, rates were measured after reactions had overcome their initial lag phase and had reached a steady state.
(§1) Mutant Enzymology. The glycylboronic acids were dissolved in DMSO at a concentration of 50 mM; more dilute stocks were subsequently prepared as necessary. Kinetic measurements were performed using nitrocefin as a substrate in 50 mM Tris buffer, pH 7.0, and monitored at 480 nm in an HP9453 UV-vis spectrophotometer. To prevent overestimation of inhibition due to sequestration of the enzyme on the walls of the cuvette during the reaction, 0.1% BSA was added to the buffer in all reactions. […] To determine Ki values, inhibitor and enzyme were incubated together in the cuvettes for 5 min before reaction was initiated by the addition of substrate. 200 μM nitrocefin was used for the reactions with L119A and L293A, whereas 400 μM nitrocefin was used for the reactions with N289A to shorten the lag phase of the reaction. For the reactions with N289A, rates were calculated from the later portions of the curve, once the reactions had achieved steady state. These rates were compared with portions of the uninhibited curves that corresponded to the same range of substrate concentrations.

AmpC L119A = target: T2, AmpC L119A (Escherichia coli, UniProt P00811, L135A); assay: biochemical; type: biochemical
T2 construct: made in house
T2 sequence (P00811 20-377 L135A): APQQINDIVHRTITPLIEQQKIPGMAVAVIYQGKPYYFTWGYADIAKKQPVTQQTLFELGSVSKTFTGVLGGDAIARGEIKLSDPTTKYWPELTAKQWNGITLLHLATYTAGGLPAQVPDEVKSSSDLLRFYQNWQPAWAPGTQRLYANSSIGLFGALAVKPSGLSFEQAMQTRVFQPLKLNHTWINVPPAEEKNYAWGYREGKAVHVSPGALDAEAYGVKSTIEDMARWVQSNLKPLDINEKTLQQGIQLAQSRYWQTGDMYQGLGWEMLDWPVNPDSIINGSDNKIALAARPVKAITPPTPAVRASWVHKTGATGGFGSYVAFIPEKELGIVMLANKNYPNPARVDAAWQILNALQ
Method: (§2) Enzyme mutagenesis and preparation. Mutants of AmpC were created using the overlap extension polymerase chain reaction (23). Mutant enzymes were expressed as described. AmpC N289A and L293A were purified on an m-aminophenylboronic acid affinity column. AmpC L119A was purified on an S-Sepharose ion-exchange column. The purified enzymes were concentrated using Centricon spin concentrators.
as §1

AmpC L293A = target: T3, AmpC L293A (Escherichia coli, UniProt P00811, L309A); assay: biochemical; type: biochemical
T3 construct: made in house
T3 sequence (P00811 20-377 L309A): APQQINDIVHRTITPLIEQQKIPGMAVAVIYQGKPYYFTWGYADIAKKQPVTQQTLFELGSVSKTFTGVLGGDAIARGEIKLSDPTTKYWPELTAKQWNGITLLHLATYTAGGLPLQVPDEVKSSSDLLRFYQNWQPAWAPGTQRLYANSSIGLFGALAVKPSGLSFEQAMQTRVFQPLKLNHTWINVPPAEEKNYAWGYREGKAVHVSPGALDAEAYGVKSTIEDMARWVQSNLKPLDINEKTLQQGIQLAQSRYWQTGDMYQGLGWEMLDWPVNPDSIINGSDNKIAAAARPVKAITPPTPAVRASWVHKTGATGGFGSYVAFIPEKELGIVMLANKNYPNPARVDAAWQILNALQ
Method: as §2, §1

[2] = test system: Escherichia coli 72929 Hip; assay: MIC, synergy with ceftazidime, microdilution; type: cell-based; conditions: E. coli 1, ceftazidime to inhibitor 1:1 in combinations
Method: (§3) Microbiology. Compounds 16 and 21 were tested for synergy with the β-lactam ceftazidime against pathogenic bacteria from clinical isolates at the Hospital Ramón y Cajal; these bacteria were resistant to β-lactams due to expression of a class C β-lactamase. Strains of bacteria tested were: Citrobacter freundii mut756-CAZ, Escherichia coli 72929 Hip, E. coli 4774 Hip (Table 4, E. coli 1 and 2, respectively), Enterobacter cloacae 72527 ED, E. cloacae 8411 CAZ-R clon7, E. cloacae 12991 ED (Table 4, E. cloacae 1, 2, and 3, respectively), Pseudomonas aeruginosa 279/88, and P. aeruginosa JMSMA7 (Table 4, P. aeruginosa 1 and 2, respectively). Minimum inhibitor concentration (MIC) values were determined with Mueller-Hinton Broth II using the microdilution method according to NCCLS guidelines. National Committee for Clinical Laboratory Standards, Methods for dilution antimicrobial susceptibility test for bacteria that grow aerobically. Approved Standard M7-A4, 1997, vol. 17, National Committee for Clinical Laboratory Standards, Villanova, Pa.

P. aeruginosa JMSMA7 = assay: MIC, synergy with ceftazidime, microdilution; type: cell-based; conditions: Pseudomonas aeruginosa, P. aeruginosa 2, ceftazidime to inhibitor 1:1 in combinations
Method: as §3

AmpC β-lactamase [3] = target: T1, AmpC β-lactamase; conditions: glycylboronic acid previously found, no buffer footnote; cited from earlier work
[4] = target: β-trypsin (bovine pancreatic) (Bos taurus, UniProt P00760); assay: Selectivity: serine protease β-trypsin; type: biochemical; conditions: 50 mM Tris pH 7.0, 25° C.
Chain of β-trypsin (bovine pancreatic) (P00760 24-246): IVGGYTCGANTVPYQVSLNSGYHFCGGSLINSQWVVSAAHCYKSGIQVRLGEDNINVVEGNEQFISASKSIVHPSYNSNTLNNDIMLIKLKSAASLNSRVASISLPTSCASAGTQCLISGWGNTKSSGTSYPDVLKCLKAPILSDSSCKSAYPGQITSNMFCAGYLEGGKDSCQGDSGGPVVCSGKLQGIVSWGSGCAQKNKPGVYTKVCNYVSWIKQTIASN
Excerpt: Selectivity. […] The reaction was monitored at 410 nm. […] The reaction was monitored at 253 nm. […] The reaction was monitored at 385 nm.

[5] = test system: eight clinically isolated bacterial pathogens producing class C β-lactamases; type: cell-based; conditions: against all strains
Method: Microbiology. Compounds 16 and 21 were tested for synergy with the β-lactam ceftazidime against pathogenic bacteria from clinical isolates at the Hospital Ramón y Cajal; these bacteria were resistant to β-lactams due to expression of a class C β-lactamase. […] Minimum inhibitor concentration (MIC) values were determined with Mueller-Hinton Broth II using the microdilution method according to NCCLS guidelines. National Committee for Clinical Laboratory Standards, Methods for dilution antimicrobial susceptibility test for bacteria that grow aerobically. Approved Standard M7-A4, 1997, vol. 17, National Committee for Clinical Laboratory Standards, Villanova, Pa.

[6] = target: α-chymotrypsin (bovine pancreatic) (Bos taurus, UniProt P00766); assay: biochemical; conditions: for selectivity for AmpC over α-chymotrypsin: ratio of IC50 values
Method: (§4) Selectivity. The selectivity of compounds 16 and 21 was tested by determining their activity against the serine proteases α-chymotrypsin (bovine pancreatic), β-trypsin (bovine pancreatic), and elastase (porcine pancreatic), all from Sigma (St. Louis, Mo.). The substrates for α-chymotrypsin (succinyl-ala-ala-pro-phe-p-nitroanilide) and β-trypsin (N-benzoyl-L-arginine ethyl ester) were also purchased from Sigma. The elastase substrate (MeOSuc-Ala-Ala-Pro-Val-pNA) was purchased from Calbiochem (San Diego, Calif.). Substrates were diluted from 20 mM DMSO stock solutions, and all reactions were performed in 50 mM Tris buffer, pH 7.0, 25° C. For α-chymotrypsin, 0.001 mg/ml of enzyme and the inhibitor at its final concentration were incubated in the cuvette for five minutes before the reaction was initiated by the addition of 200 μM of substrate. The reaction was monitored at 410 nm. For β-trypsin, 0.004 mg/ml of enzyme and the inhibitor at its final concentration were incubated in the cuvette for five minutes before the reaction was initiated by the addition of 200 μM of substrate. The reaction was monitored at 253 nm. For elastase, 0.006 mg/ml of enzyme and the inhibitor at its final concentration were incubated in the cuvette for five minutes before the reaction was initiated by the addition of 640 μM of substrate. The reaction was monitored at 385 nm. Initial rate fits to the absorbance data for the first 100 seconds were used to determine reaction velocities.

[7] = target: elastase (porcine pancreatic) (Sus scrofa, UniProt P00772); assay: biochemical; conditions: for selectivity for AmpC over elastase: ratio of IC50 values
Chain of elastase (porcine pancreatic) (P00772 27-266): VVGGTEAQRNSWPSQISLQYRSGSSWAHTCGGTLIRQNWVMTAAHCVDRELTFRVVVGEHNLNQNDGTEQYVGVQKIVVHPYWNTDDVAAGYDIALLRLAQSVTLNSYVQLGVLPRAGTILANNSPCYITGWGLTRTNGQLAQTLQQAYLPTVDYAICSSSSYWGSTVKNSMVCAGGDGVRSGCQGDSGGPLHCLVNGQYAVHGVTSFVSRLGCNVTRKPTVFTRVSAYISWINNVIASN
Method: as §4

AmpC N289A = target: T4, AmpC N289A (Escherichia coli, UniProt P00811, N305A); assay: biochemical; type: biochemical
T4 construct: made in house
T4 sequence (P00811 20-377 N305A): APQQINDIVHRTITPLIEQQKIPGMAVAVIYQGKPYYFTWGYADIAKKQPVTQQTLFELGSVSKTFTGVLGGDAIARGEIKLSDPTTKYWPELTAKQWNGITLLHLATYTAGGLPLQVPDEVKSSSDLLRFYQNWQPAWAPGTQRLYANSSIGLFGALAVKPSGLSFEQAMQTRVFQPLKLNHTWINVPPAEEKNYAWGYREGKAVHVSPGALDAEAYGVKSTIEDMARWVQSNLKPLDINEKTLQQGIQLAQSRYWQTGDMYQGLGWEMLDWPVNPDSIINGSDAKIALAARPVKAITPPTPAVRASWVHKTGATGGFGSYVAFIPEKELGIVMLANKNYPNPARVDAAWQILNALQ
Method: as §2, §1

[8] = differential free energy of binding relative to compound 1, 298 K, positive = improved affinity

Compound: O=C(Cc1cccs1)NCB(O)O [Compound 4, reference compound]
- pKi (AmpC β-lactamase [1]): 6.73
- pKi (AmpC L119A): 6.17
- pKi (AmpC L293A): 5.21

Compound: CC(C)(O/N=C(\C(=O)N[C@@H]1C(=O)N2C(C(=O)[O-])=C(C[n+]3ccccc3)CS[C@H]12)c1csc(N)n1)C(=O)O [CAZ, ceftazidime]
- MIC [2]: 32 µg/mL
- MIC (P. aeruginosa JMSMA7): 64 µg/mL

Compound: CC(C)(O/N=C(\C(=O)NCB(O)O)c1csc(N)n1)C(=O)O [Compound 3, reference compound]
- ΔΔG from 1 (kcal/mol) (AmpC β-lactamase [1]; [8]): 4.04 — kcal/mol
- pKi (AmpC β-lactamase [3]): 7.70

Compound: O=C(Cc1cccs1)N[C@H](B(O)O)c1cccc(C(=O)O)c1 [Compound 16, (1R)-1-(2-thienylacetylamino)-1-(3-carboxyphenyl)methylboronic acid]
- pIC50 [4]: < 3.00
- pIC50 (AmpC β-lactamase [1]): 8.59
- pKi (AmpC β-lactamase [1]): 9.00
- type of inhibition of AmpC (AmpC β-lactamase [1]): time-dependent inhibition
- pKi (AmpC β-lactamase [1]; 50 mM Tris pH 7.0, 200 μM nitrocefin, 5 min incubation): 9.00
- fold more potent than the lead compound lacking the m.carboxyphenyl side chain (AmpC β-lactamase [1]): 300 fold
- ΔΔG from 1 (AmpC β-lactamase [1]; [8]): 5.82 kcal/mol
- improvement of binding energy by addition of the m.carboxyphenyl side chain (AmpC β-lactamase [1]; versus lead lacking the side chain): 3.4 kcal/mol
- synergy with ceftazidime [5]: showed synergy
- pIC50 [6]: 3.82
- selectivity for AmpC over α-chymotrypsin [6]: 57,000 fold
- pIC50 [7]: 3.30
- selectivity for AmpC over elastase [7]: 190,000 fold
- pKi (AmpC N289A): 7.77
- reduction of affinity by the N289A substitution versus the wild-type enzyme (AmpC N289A): 17 fold
- ΔΔΔG, hydrogen bond energy between Asn289 and the inhibitor group (AmpC N289A; thermodynamic cycle, WT AmpC / N289A, mutant ligand 21): 1.7 kcal/mol

Compound: CC1(C)C2CC3OB([C@@H](NC(=O)Cc4cccs4)c4cccc(C=O)c4)O[C@@]3(C)C1C2 (single isomer, unassigned; (+)) [Compound 26]
- pKi (AmpC β-lactamase [1]): 7.82
- pKi (AmpC N289A): 7.74

Compound: O=C(Cc1cccs1)N[C@H](B(O)O)c1ccccc1 [Compound 21, (1R)-1-(2-thienylacetylamino)-1-phenylmethylboronic acid]
- pIC50 [4]: < 3.00
- pIC50 (AmpC β-lactamase [1]): 7.05
- pKi (AmpC β-lactamase [1]): 7.46
- ΔΔG from 1 (AmpC β-lactamase [1]; [8]): 3.71 kcal/mol
- fold less active than compound 16 (AmpC β-lactamase [1]; wild-type AmpC): 35 fold
- synergy with ceftazidime [5]: showed synergy
- pIC50 [6]: 5.22
- selectivity for AmpC over α-chymotrypsin [6]: 60 fold
- pIC50 [7]: 3.89
- selectivity for AmpC over elastase [7]: 1,400 fold
- pKi (AmpC N289A): 7.43
- fall in affinity relative to the affinity of 16 for the mutant (AmpC N289A; AmpC N289A): 2 fold
- pKi (AmpC L119A): 7.92
- ΔΔΔG, interaction between the inhibitor phenyl ring and Leu119 (AmpC L119A; thermodynamic cycle, WT AmpC / L119A, L=21, L′=4, negative = unfavorable): -1.4 kcal/mol
- pKi (AmpC L293A): 6.28
- ΔΔΔG, interaction between the inhibitor phenyl ring and Leu293 (AmpC L293A; thermodynamic cycle, WT AmpC / L293A, L=21, L′=4, negative = unfavorable): -0.5 kcal/mol
- reduction of affinity by the L293→Ala substitution (AmpC L293A; versus wild-type AmpC): 1.6 kcal/mol
- melting point: 90 to 100 °C

Compound: CC(=O)NCB(O)O [Compound 1, reference compound]
- ΔΔG from 1 (AmpC β-lactamase [1]; [8]): 0.00 kcal/mol

Compound: O=C(Cc1cccs1)N[C@@H]1C(=O)N2C(C(=O)O)=C(/C=C/c3ccc([N+](=O)[O-])cc3[N+](=O)[O-])CS[C@H]12 [nitrocefin, reference compound]
- Km (AmpC N289A; read-out: KM of nitrocefin, N289A): 27 µM
- Km (AmpC L293A; read-out: KM of nitrocefin, L293A): 33 µM

Compound: Cc1onc(-c2ccccc2Cl)c1C(=O)N[C@H](B(O)O)c1cccc(C(=O)O)c1 [Compound 17, (1R)-1-{[3-(2-Chlorophenyl)-5-methyl-isoxazole-4-carbonyl]-amino}-1-(3-carboxyphenyl)methylboronic acid]
- pKi (AmpC β-lactamase [1]): 5.24
- binding energy made worse by addition of the m.carboxyphenyl group (AmpC β-lactamase [1]; 17 versus 2): about 2 kcal/mol
- fold less potent (higher Ki) than compound 2 lacking the m.carboxyphenyl group (AmpC β-lactamase [1]; 17 versus 2): 40 fold
- ΔΔG from 1 (AmpC β-lactamase [1]; [8]): 0.70 kcal/mol
- melting point: 180 to 190 °C

Compound: CC(=O)N[C@H](B(O)O)c1cccc(C(=O)O)c1 [Compound 15, (1R)-1-acetylamino-1-(3-carboxyphenyl)methylboronic acid]
- pKi (AmpC β-lactamase [1]): 6.89
- fold more potent than the lead compound lacking the m.carboxyphenyl side chain (AmpC β-lactamase [1]): 150 fold
- ΔΔG from 1 (AmpC β-lactamase [1]; [8]): 2.95 kcal/mol
